Laboratory results: patent publication US12336980B2, “Dosing regimen for a selective S1P1 receptor agonist” (Vanda Pharmaceuticals Inc., priority 2014, dated 2025)

Experiments:
heart rate in humans = assay: Heart rate reduction in humans after administration (background finding); format: in vivo, human; details: transient heart rate reduction
healthy subjects = assay: Pulmonary function tests and clinical laboratory (hematology); format: in vivo, human; details: hemoglobin, hematocrit, red blood cell count, basophils, eosinophils, neutrophils, monocytes, platelet count
Procedure: Safety and tolerability were evaluated by monitoring adverse events (AEs), vital signs measurements (supine blood pressure), pulmonary function tests (PFTs; i.e., FEV1 and FVC), clinical laboratory, physical, and neurological examinations. Recording of blood pressure was performed at the same time-points as 12-lead ECG.

## CCC/N=C1\S/C(=C\c2ccc(OC[C@H](O)CO)c(Cl)c2)C(=O)N1c1ccccc1C [ponesimod, (R)-5-[3-chloro-4-(2,3-dihydroxy-propoxy)-benz[Z]ylidene]-2-([Z]-propylimino)-3-o-tolyl-thiazolidin-4-one]
Heart rate in humans
  time of maximal heart rate reducing effects after administration: 1 to 3 h
Healthy subjects
  effect on PFT variables and hematology variables: No treatment effect
